Reference: ChEMBL document CHEMBL4387729, “Synthesis and structure-activity relationship of 4-alkoxy-thieno[2,3-b]pyridine derivatives as potent alkaline phosphatase enhancers for osteoporosis treatment” (Bioorg Med Chem Lett, 2019)
Values after ≈ are worked out from the molar mass of the structure shown. Active and inactive are the calls of the source. No cut-off for these calls is given here.

How the values were obtained:
[1] = molecular target: T1, Alkaline phosphatase, tissue-nonspecific isozyme (Mus musculus) (UniProt P09242); assay: Induction of alkaline phosphatase activity in mouse ST-2 cells after 4 days by spectrophotometric method; assay type: cell-based
T1 sequence (whole entry): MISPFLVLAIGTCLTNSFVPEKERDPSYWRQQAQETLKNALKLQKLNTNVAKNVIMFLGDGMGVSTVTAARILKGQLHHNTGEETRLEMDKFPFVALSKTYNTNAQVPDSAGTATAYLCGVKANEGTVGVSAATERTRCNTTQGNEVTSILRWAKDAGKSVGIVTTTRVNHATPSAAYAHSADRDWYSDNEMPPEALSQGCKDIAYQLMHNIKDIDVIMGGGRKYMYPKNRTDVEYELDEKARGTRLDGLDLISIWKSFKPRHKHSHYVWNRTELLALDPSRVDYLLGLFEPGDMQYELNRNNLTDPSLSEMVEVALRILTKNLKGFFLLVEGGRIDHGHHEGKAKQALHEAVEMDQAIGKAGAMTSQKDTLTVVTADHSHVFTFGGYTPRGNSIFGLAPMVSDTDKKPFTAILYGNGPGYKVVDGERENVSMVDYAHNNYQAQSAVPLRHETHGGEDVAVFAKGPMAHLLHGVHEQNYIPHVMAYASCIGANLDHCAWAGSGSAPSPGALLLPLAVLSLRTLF

CYP1A2 = molecular target: T2, CYP1A2 (Homo sapiens, UniProt P05177); assay: Inhibition of CYP1A2 (unknown origin) at 10 uM relative to control; assay type: ADME
T2 sequence (P05177 whole entry): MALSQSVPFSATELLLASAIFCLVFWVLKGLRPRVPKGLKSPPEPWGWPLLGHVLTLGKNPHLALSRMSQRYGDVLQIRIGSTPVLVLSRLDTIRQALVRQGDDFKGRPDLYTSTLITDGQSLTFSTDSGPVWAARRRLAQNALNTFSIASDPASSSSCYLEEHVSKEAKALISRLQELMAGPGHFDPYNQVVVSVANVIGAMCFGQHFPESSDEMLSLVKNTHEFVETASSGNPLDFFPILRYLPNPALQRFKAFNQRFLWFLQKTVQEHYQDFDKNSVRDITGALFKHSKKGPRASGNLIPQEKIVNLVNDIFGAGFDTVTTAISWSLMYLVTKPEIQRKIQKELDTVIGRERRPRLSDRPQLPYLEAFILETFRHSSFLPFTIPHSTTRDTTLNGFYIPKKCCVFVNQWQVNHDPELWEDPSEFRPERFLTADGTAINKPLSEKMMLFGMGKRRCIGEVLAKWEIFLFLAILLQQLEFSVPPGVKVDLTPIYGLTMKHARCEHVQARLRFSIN

[2] = Solubility of the compound in pH 6.8 JP2 solution; assay type: physicochemical
[3] = Metabolic stability in human liver microsomes assessed as parent compound remaining after 30 mins; assay type: ADME, Microsome; conditions: read-out: Stability
[4] = Metabolic stability in rat liver microsomes assessed as parent compound remaining after 30 mins; assay type: ADME, Microsome; conditions: read-out: Stability
CYP2C9 = CYP2C9 (Homo sapiens, UniProt P11712); assay: Inhibition of CYP2C9 (unknown origin) at 10 uM relative to control; assay type: ADME
Sequence of CYP2C9 (P11712 whole entry): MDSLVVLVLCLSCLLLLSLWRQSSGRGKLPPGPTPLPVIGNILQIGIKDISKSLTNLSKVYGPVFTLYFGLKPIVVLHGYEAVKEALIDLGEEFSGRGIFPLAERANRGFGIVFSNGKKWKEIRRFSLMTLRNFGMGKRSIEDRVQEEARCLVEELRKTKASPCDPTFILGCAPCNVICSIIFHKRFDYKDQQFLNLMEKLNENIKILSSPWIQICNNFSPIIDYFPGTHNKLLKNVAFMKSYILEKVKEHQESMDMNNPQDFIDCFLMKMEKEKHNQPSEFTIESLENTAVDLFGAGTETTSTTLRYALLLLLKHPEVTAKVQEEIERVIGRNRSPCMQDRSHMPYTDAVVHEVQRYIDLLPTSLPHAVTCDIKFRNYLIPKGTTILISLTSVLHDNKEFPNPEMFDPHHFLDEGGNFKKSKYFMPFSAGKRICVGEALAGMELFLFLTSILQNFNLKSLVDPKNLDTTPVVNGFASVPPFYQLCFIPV

CYP2C19 = CYP2C19 (Homo sapiens, UniProt P33261); assay: Inhibition of CYP2C19 (unknown origin) at 10 uM relative to control; assay type: ADME
Sequence of CYP2C19 (P33261 whole entry): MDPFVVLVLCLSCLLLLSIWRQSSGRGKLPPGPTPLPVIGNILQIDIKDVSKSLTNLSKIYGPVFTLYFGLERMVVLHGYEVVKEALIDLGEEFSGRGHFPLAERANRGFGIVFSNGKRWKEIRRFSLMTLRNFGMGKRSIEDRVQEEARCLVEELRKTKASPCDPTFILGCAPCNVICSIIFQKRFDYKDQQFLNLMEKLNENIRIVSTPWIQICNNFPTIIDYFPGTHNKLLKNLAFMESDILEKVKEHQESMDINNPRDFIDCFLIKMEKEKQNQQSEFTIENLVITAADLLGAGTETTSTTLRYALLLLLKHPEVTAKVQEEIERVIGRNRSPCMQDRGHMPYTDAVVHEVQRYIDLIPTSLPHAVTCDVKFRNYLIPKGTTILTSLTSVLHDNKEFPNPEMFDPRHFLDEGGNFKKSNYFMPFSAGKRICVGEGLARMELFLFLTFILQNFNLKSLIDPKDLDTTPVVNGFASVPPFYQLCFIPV

CYP2D6 = CYP2D6 (Homo sapiens, UniProt P10635); assay: Inhibition of CYP2D6 (unknown origin) at 10 uM relative to control; assay type: ADME
Sequence of CYP2D6 (P10635 whole entry): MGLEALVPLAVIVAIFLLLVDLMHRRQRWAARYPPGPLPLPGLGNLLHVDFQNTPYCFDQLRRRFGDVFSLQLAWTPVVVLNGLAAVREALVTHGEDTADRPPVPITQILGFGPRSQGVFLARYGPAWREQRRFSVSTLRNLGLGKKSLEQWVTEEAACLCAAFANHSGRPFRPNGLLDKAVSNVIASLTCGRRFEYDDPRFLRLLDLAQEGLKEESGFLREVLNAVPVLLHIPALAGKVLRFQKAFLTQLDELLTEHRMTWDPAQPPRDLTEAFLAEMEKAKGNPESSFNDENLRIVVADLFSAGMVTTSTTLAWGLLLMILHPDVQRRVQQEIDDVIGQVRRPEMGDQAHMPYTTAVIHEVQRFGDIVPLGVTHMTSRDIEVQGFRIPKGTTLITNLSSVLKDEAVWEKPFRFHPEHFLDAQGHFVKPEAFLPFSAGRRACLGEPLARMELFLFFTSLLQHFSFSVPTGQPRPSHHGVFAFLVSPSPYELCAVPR

CYP3A4 [5] = molecular target: T3, CYP3A4 (Homo sapiens, UniProt P08684); assay: in vitro; conditions: human liver microsomes
T3 sequence (P08684 whole entry): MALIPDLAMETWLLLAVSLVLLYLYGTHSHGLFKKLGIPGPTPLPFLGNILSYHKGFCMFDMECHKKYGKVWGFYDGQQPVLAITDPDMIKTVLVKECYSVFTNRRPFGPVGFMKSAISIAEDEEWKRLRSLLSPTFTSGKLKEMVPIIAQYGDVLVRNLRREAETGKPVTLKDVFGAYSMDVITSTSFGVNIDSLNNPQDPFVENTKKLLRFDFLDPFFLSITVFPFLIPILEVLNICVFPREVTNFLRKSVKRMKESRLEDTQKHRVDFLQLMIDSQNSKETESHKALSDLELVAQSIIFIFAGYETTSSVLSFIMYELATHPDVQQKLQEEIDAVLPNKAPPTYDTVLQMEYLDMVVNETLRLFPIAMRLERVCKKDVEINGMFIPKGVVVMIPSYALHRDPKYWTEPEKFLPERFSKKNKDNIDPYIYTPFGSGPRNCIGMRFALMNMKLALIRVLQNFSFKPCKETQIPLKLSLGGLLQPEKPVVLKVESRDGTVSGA
Description: Time dependent inhibition of CYP3A4 in human liver microsomes assessed as enzyme residual activity at 100 uM relative to control

CYP3A4 [6] = molecular target: T3, CYP3A4; assay: in vitro
[7] = Cmax in F344 rat at 60 mg/kg, po; assay type: ADME, organism-based; set-up: dose 60 mg/kg, route oral; conditions: in vivo
[8] = AUC (0 to 8 hrs) in F344 rat at 60 mg/kg, po; assay type: ADME, organism-based; set-up: time < 8 hr, dose 60 mg/kg, route oral; conditions: in vivo
[9] = Cmax in F344 rat at 30 mg/kg, po; assay type: ADME, organism-based; set-up: dose 30 mg/kg, route oral; conditions: in vivo
[10] = AUC (0 to 8 hrs) in F344 rat at 30 mg/kg, po; assay type: ADME, organism-based; set-up: time < 8 hr, dose 30 mg/kg, route oral; conditions: in vivo
Rattus norvegicus [11] = assay: Bone anabolic activity in ovariectomized F344 rat assessed as increase in areal bone mineral density in distal femur at 30 mg/kg/day, po administered for 5 weeks measured post-last dose by dual energy X-ray absorptiometry; assay type: functional, organism-based
Rattus norvegicus [12] = assay: Bone anabolic activity in ovariectomized F344 rat assessed as increase in areal bone mineral density in proximal femur at 30 mg/kg/day, po administered for 5 weeks measured post-last dose by dual energy X-ray absorptiometry; assay type: functional, organism-based
Rattus norvegicus [13] = assay: Bone anabolic activity in ovariectomized F344 rat assessed as increase in areal bone mineral density in total femur at 30 mg/kg/day, po administered for 5 weeks measured post-last dose by dual energy X-ray absorptiometry; assay type: functional, organism-based

CN(C)C(=O)CCc1ccc(Oc2ccnc3sc(C(N)=O)c(N)c23)cc1 gave an EC200 [1] of 0.01 µg/mL.
Cc1cc(Oc2ccc(CCCC(=O)N(C)C)cc2)c2c(N)c(C(N)=O)sc2n1 showed an EC200 [1] of 0.0011 µg/mL.
In the case of NC(=O)c1sc2nccc(Oc3ccccc3)c2c1N, the inhibition at 10 µM (CYP1A2) is reported as 41%, the EC200 [1] is reported as 0.046 µg/mL and the solubility [2] is reported as 0.0066 mg/mL (≈ 23.1 µM). It also gave a remaining at 0.5 h [3] of 11%, a remaining at 0.5 h [4] of 36% and an inhibition at 10 µM (CYP2C9) of 13%. The inhibition at 10 µM (CYP2C19) was 15%, the inhibition at 10 µM (CYP2D6) was 5% and the activity at 100 µM (CYP3A4 [5]) was 93%. For the same compound, the inhibition at 10 µM (CYP3A4 [6]) was 9%.
CC[C@H]1CC[C@H](Oc2ccnc3sc(C(N)=O)c(N)c23)CC1 gave an EC200 [1] of over 0.3 µg/mL.
Work on CN(C)C(=O)c1ccc(Oc2ccnc3sc(C(N)=O)c(N)c23)cc1 yielded an EC200 [1] of over 0.3 µg/mL.
Work on COc1ccccc1Oc1ccnc2sc(C(N)=O)c(N)c12 yielded an EC200 [1] of 0.114 µg/mL.
C[C@H]1COCC[C@@H]1Oc1ccnc2sc(C(N)=O)c(N)c12 gave an EC200 [1] of 0.27 µg/mL.
For COc1ccc(Oc2ccnc3sc(C(N)=O)c(N)c23)c(Cl)c1, the EC200 [1] was 0.008 µg/mL.
COc1ccnc2sc(C(N)=O)c(N)c12 gave an EC200 [1] of over 1 µg/mL.
Work on NC(=O)c1sc2nccc(SC3CCCCC3)c2c1N yielded an EC200 [1] of over 1 µg/mL.
For NC(=O)c1sc2nccc(OC3CCCCC3)c2c1N, the EC200 [1] was 0.14 µg/mL, the solubility [2] was 0.028 mg/mL (≈ 96.1 µM) and the remaining at 0.5 h [3] was 1%. The remaining at 0.5 h [4] was 2%.
In the case of NC(=O)c1sc2nccc(N3CCCN(c4ccccc4)CC3)c2c1N, the inhibition at 10 µM (CYP1A2) is reported as 14%, the inhibition at 10 µM (CYP2C9) is reported as 71% and the inhibition at 10 µM (CYP2C19) is reported as 96%. For the same compound, the inhibition at 10 µM (CYP2D6) was 34%, the activity at 100 µM (CYP3A4 [5]) was 28% and the inhibition at 10 µM (CYP3A4 [6]) was 49%.
NC(=O)c1sc2nccc(Oc3ccc(CCO)cc3)c2c1N showed an inhibition at 10 µM (CYP1A2) of 1%, an EC200 [1] of 0.025 µg/mL and a solubility [2] of 0.039 mg/mL (≈ 118 µM). The remaining at 0.5 h [3] was 93%, the remaining at 0.5 h [4] was 75% and the inhibition at 10 µM (CYP2C9) was 7%. For the same compound, the inhibition at 10 µM (CYP2C19) was 8%, the inhibition at 10 µM (CYP2D6) was 3% and the Cmax [7] was 1.54 µg/mL. It also gave an AUC(0-t) at 8 h [8] of 3.58 µg·h/mL, an activity at 100 µM (CYP3A4 [5]) of 88% and an inhibition at 10 µM (CYP3A4 [6]) of 0%.
With CCc1ccc(Oc2ccnc3sc(C(N)=O)c(N)c23)cc1 the EC200 [1] was 0.036 µg/mL.
For C[C@H]1CC[C@@H](Oc2ccnc3sc(C(N)=O)c(N)c23)CC1, the EC200 [1] was over 1 µg/mL.
With NC(=O)c1sc2nccc(Oc3cccc(Cl)c3)c2c1N the EC200 [1] was 0.149 µg/mL.
Compound NC(=O)c1sc2nccc(Oc3ccc(Cl)cc3)c2c1N has an EC200 [1] of 0.021 µg/mL.
Compound CC(C)Oc1ccnc2sc(C(N)=O)c(N)c12 has an EC200 [1] of 0.72 µg/mL.
In the case of C[C@H]1CC[C@H](Oc2ccnc3sc(C(N)=O)c(N)c23)CC1, the EC200 [1] is reported as 0.037 µg/mL.
CCOc1ccnc2sc(C(N)=O)c(N)c12 showed an EC200 [1] of 0.27 µg/mL.
For C[C@H]1CCCC[C@@H]1Oc1ccnc2sc(C(N)=O)c(N)c12 (relative stereo), the EC200 [1] was 0.045 µg/mL, the solubility [2] was 0.042 mg/mL (≈ 138 µM) and the remaining at 0.5 h [3] was 20%. It also gave a remaining at 0.5 h [4] of 7%.
Cc1cc(Oc2ccc(CCCC(=O)N(C)C)cc2Cl)c2c(N)c(C(N)=O)sc2n1 showed an inhibition at 10 µM (CYP1A2) of 6%, an EC200 [1] of 0.0004 µg/mL and a solubility [2] of 0.0002 mg/mL (≈ 0.447 µM). For the same compound, the remaining at 0.5 h [3] was 25%, the remaining at 0.5 h [4] was 11% and the inhibition at 10 µM (CYP2C9) was 30%. For the same compound, the inhibition at 10 µM (CYP2C19) was 11%, the inhibition at 10 µM (CYP2D6) was 15% and the activity at 100 µM (CYP3A4 [5]) was 25%. The inhibition at 10 µM (CYP3A4 [6]) was 40%.
Compound Cc1cc(Oc2ccc(CCCC(=O)N(C)C)cc2F)c2c(N)c(C(N)=O)sc2n1 has an inhibition at 10 µM (CYP1A2) of 10%, an EC200 [1] of 0.0005 µg/mL and a solubility [2] of 0.0003 mg/mL (≈ 0.697 µM). The remaining at 0.5 h [3] was 60%, the remaining at 0.5 h [4] was 12% and the inhibition at 10 µM (CYP2C9) was 17%. The inhibition at 10 µM (CYP2C19) was 10%, the inhibition at 10 µM (CYP2D6) was 10% and the Cmax [7] was 0.096 µg/mL. It also gave an AUC(0-t) at 8 h [8] of 0.591 µg·h/mL, an activity at 100 µM (CYP3A4 [5]) of 47% and an inhibition at 10 µM (CYP3A4 [6]) of 20%.
For CN(C)C(=O)CCCc1ccc(Oc2ccnc3sc(C(N)=O)c(N)c23)cc1, the EC200 [1] was 0.004 µg/mL.
With COc1ccc(Oc2ccnc3sc(C(N)=O)c(N)c23)cc1 the EC200 [1] was 0.02 µg/mL.
With CN1CCC(Oc2ccnc3sc(C(N)=O)c(N)c23)CC1 the EC200 [1] was over 1 µg/mL.
CN(C)c1ccnc2sc(C(N)=O)c(N)c12 showed an inhibition at 10 µM (CYP1A2) of 61%, an EC200 [1] of 0.17 µg/mL and an inhibition at 10 µM (CYP2C9) of 0%. The inhibition at 10 µM (CYP2C19) was 0%, the inhibition at 10 µM (CYP2D6) was 1% and the inhibition at 10 µM (CYP3A4 [6]) was 0%.
In the case of CC(C)c1ccc(Oc2ccnc3sc(C(N)=O)c(N)c23)cc1, the EC200 [1] is reported as over 0.3 µg/mL.
In the case of NC(=O)c1sc2nccc(Oc3ccccc3Cl)c2c1N, the EC200 [1] is reported as 0.008 µg/mL.
NC(=O)c1sc2nccc(Oc3ccc(Cl)cc3Cl)c2c1N gave an EC200 [1] of 0.014 µg/mL.
COC(=O)c1ccc(Oc2ccnc3sc(C(N)=O)c(N)c23)cc1 showed an EC200 [1] of 0.09 µg/mL.
Compound CN(C)CCc1ccc(Oc2ccnc3sc(C(N)=O)c(N)c23)cc1 has an EC200 [1] of 0.058 µg/mL.
Compound NC(=O)c1sc2nccc(Oc3ccccc3F)c2c1N has an EC200 [1] of 0.022 µg/mL.
Compound CCc1ccccc1Oc1ccnc2sc(C(N)=O)c(N)c12 has an EC200 [1] of 0.201 µg/mL.
With CN(C)C(=O)COc1ccc(Oc2ccnc3sc(C(N)=O)c(N)c23)cc1 the EC200 [1] was 0.023 µg/mL.
With N#Cc1ccc(Oc2ccnc3sc(C(N)=O)c(N)c23)cc1 the EC200 [1] was 0.227 µg/mL.
NC(=O)c1sc2nccc(OC3CCOCC3)c2c1N showed an inhibition at 10 µM (CYP1A2) of 11%, an EC200 [1] of 0.25 µg/mL and a solubility [2] of 0.18 mg/mL (≈ 614 µM). The remaining at 0.5 h [3] was 92%, the remaining at 0.5 h [4] was 85% and the inhibition at 10 µM (CYP2C9) was 1%. For the same compound, the inhibition at 10 µM (CYP2C19) was 1%, the inhibition at 10 µM (CYP2D6) was 0% and the Cmax [9] was 10.4 µg/mL. For the same compound, the AUC(0-t) at 8 h [10] was 29.8 µg·h/mL, the Activity (Rattus norvegicus [11]) was “Active” and the Activity (Rattus norvegicus [12]) was “Active”. The Activity (Rattus norvegicus [13]) was “Active”, the activity at 100 µM (CYP3A4 [5]) was 89% and the inhibition at 10 µM (CYP3A4 [6]) was 2%.
Work on C[C@@H]1CCC[C@H](Oc2ccnc3sc(C(N)=O)c(N)c23)C1 (relative stereo) yielded an EC200 [1] of over 1 µg/mL.
